Experimental data as given in the supplement of paper PMC13380429.
± gives the standard deviation of the averaged measurements.

Experiments:
Conditions in all cases: 72 h
Caco-2 [1] = test: cell viability relative to DMSO; higher = less toxic
Calu-3 [2] = test: as above
HepG2 [3] = test: as above
U2OS [4] = test: as above
Vero E6 [5] = test: as above
Caco-2 [6] = test: relative viability EC50 (midpoint between 100% and the lowest measured viability); higher = less toxic
Calu-3 [7] = test: as above
HepG2 [8] = test: as above
U2OS [9] = test: as above
Vero E6 [10] = test: as above
Caco-2 [11] = test: drug sensitivity score (DSS) for viability; higher = more toxic; extreme values may be limits of the assay
Calu-3 [12] = test: as above
HepG2 [13] = test: as above
U2OS [14] = test: as above
Vero E6 [15] = test: as above

Structure (SMILES) | cell viability (Caco-2 [1]; 1 nM) [%] | cell viability (Caco-2 [1]; 10 nM) [%] | cell viability (Caco-2 [1]; 100 nM) [%] | cell viability (Caco-2 [1]; 1000 nM) [%] | cell viability (Caco-2 [1]; 10000 nM) [%] | cell viability (Calu-3 [2]; 1 nM) [%] | cell viability (Calu-3 [2]; 10 nM) [%] | cell viability (Calu-3 [2]; 100 nM) [%] | cell viability (Calu-3 [2]; 1000 nM) [%] | cell viability (Calu-3 [2]; 10000 nM) [%] | cell viability (HepG2 [3]; 1 nM) [%] | cell viability (HepG2 [3]; 10 nM) [%] | cell viability (HepG2 [3]; 100 nM) [%] | cell viability (HepG2 [3]; 1000 nM) [%] | cell viability (HepG2 [3]; 10000 nM) [%] | cell viability (U2OS [4]; 1 nM) [%] | cell viability (U2OS [4]; 10 nM) [%] | cell viability (U2OS [4]; 100 nM) [%] | cell viability (U2OS [4]; 1000 nM) [%] | cell viability (U2OS [4]; 10000 nM) [%] | cell viability (Vero E6 [5]; 1 nM) [%] | cell viability (Vero E6 [5]; 10 nM) [%] | cell viability (Vero E6 [5]; 100 nM) [%] | cell viability (Vero E6 [5]; 1000 nM) [%] | cell viability (Vero E6 [5]; 10000 nM) [%] | relative viability EC50 (Caco-2 [6]) [µM] | relative viability EC50 (Calu-3 [7]) [µM] | relative viability EC50 (HepG2 [8]) [µM] | relative viability EC50 (U2OS [9]) [µM] | relative viability EC50 (Vero E6 [10]) [µM] | drug sensitivity score (Caco-2 [11]) | drug sensitivity score (Calu-3 [12]) | drug sensitivity score (HepG2 [13]) | drug sensitivity score (U2OS [14]) | drug sensitivity score (Vero E6 [15])
CCc1ccc(/C=C/C(=O)Nc2ccc(C(C)=O)cc2)o1 [heclin] | 91.1 | 102 | 91.4 | 95.2 | 88.4 | 98.5 | 106 | 95 | 99.6 | 87.3 | 93.6 | 95.6 | 88.5 | 92.3 | 85.6 | 93.2 | 98.6 | 96.3 | 94.2 | 90.3 | 102 | 103 | 98.9 | 99.9 | 103 | > 10 | > 10 | > 10 | > 10 | > 10 | 0 | 0.1 | 0.4 | 0 | 0
COc1cc(C(=O)NCC2(N(C)C)CCCC2)cc(OC)c1OCc1ccccc1 | 95.5 | 98.1 | 103 | 97.3 | 93.5 | 94.3 | 92.1 | 96.7 | 103 | 85.8 | 97.3 | 106 | 101 | 88.8 | 89.6 | 100 | 104 | 97 | 104 | 95.9 | 104 | 99.9 | 107 | 99.4 | 95.8 | > 10 | > 10 | > 10 | > 10 | > 10 | 0 | 0.1 | 0.3 | 0 | 0
CC(C)N[C@H]1CCn2c(=O)[nH]c3cccc(c32)[C@@H]1O [zilpaterol] | 92.8 ± 2.5 | 97.75 ± 0.071 | 100 ± 3.2 | 96.9 ± 2.5 | 95.3 ± 9.4 | 103 ± 1.5 | 97.2 ± 10 | 105 ± 1.1 | 93 ± 3.9 | 97.5 ± 0.42 | 104.9 ± 0.57 | 105.5 ± 0.78 | 104 ± 2 | 95.95 ± 0.071 | 105 ± 3 | 100 ± 2.1 | 99.1 ± 5.2 | 97.4 ± 3 | 98.6 ± 8.3 | 101 ± 3.3 | 98.1 ± 11 | 99.5 ± 0.28 | 94.8 ± 8.6 | 99 ± 7.4 | 104 ± 9.6 | > 10 | > 10 | > 10 | > 10 | > 10 | 0 | 0 | 0 | 0 | 0
COc1cccc(N(C)C(=S)Oc2ccc3c(c2)CCCC3)n1 [liranaftate] | 97.4 | 97.7 | 96.2 | 109 | 97.5 | 96.9 | 98.4 | 102 | 105 | 97.6 | 105 | 97.7 | 101 | 100 | 110 | 97.2 | 98.3 | 95.5 | 96.6 | 95.8 | 97.2 | 99.4 | 99.6 | 95.2 | 99.3 | > 10 | > 10 | > 10 | > 10 | > 10 | 0 | 0 | 0 | 0 | 0
CN(C)[C@@H]1C(O)=C(C(N)=O)C(=O)[C@@]2(O)C(O)=C3C(=O)c4c(O)ccc(Cl)c4[C@@H](O)[C@H]3C[C@@H]12 [demeclocycline] | 99.9 | 95.9 | 101 | 95.5 | 96.3 | 112 | 115 | 102 | 98.9 | 93.4 | 89.5 | 97.6 | 97.3 | 102 | 94.9 | 105 | 98 | 101 | 96.3 | 93.8 | 98.1 | 103 | 110 | 99.6 | 91 | > 10 | > 10 | > 10 | > 10 | > 10 | 0 | 0 | 0 | 0 | 0
CSCC1CN(/N=C/c2ccc([N+](=O)[O-])o2)C(=O)O1 (stereo not given) [inimur] | 90.6 | 97.7 | 92.7 | 94.5 | 89.4 | 89.9 | 97.4 | 96.8 | 104 | 101 | 100 | 93.8 | 96.5 | 94.3 | 93 | 98.2 | 101 | 95.8 | 101 | 105 | 96.6 | 96.4 | 89.7 | 89 | 95 | > 10 | > 10 | > 10 | > 10 | > 10 | 0 | 0 | 0 | 0 | 0
O=C(Nc1ccc(F)cc1)N1CCc2ccccc2[C@@H]1c1ccc(C(F)(F)F)cc1 [TC-I-2000] | 102 | 103 | 95.9 | 98.7 | 93.3 | 107 | 98.3 | 94.6 | 99 | 97.4 | 93.6 | 109 | 99.5 | 101 | 94.2 | 98.7 | 99.2 | 102 | 99.8 | 102 | 108 | 101 | 102 | 103 | 89.7 | > 10 | > 10 | > 10 | > 10 | > 10 | 0 | 0 | 0 | 0 | 0
CC(=O)N(O)C/C=C/c1cccc(Oc2ccccc2)c1 [BW-A4C] | 92.5 | 103 | 115 | 92.9 | 102 | 89.6 | 105 | 97.8 | 114 | 112 | 95.6 | 99.4 | 104 | 84.5 | 92.9 | 95.4 | 95.5 | 94.6 | 98.6 | 81.8 | 107 | 86.1 | 109 | 95.2 | 102 | > 10 | > 10 | > 10 | > 10 | > 10 | 0 | 0 | 1.4 | 0.6 | 0
Cn1cc(C(=O)C(=O)N[C@H]2CN3CCC2CC3)c2ccccc21 | 95.7 | 99.6 | 104 | 99.9 | 110 | 99.9 | 102 | 98.9 | 100 | 94.5 | 108 | 94.2 | 114 | 95.3 | 96.9 | 96.8 | 107 | 99.2 | 101 | 96.1 | 112 | 114 | 105 | 97.9 | 98.5 | > 10 | > 10 | > 10 | > 10 | > 10 | 0 | 0 | 0 | 0 | 0
CC1(C)CC(=O)c2c(C(F)(F)F)nn(-c3ccc(C(N)=O)c(N[C@H]4CC[C@H](O)CC4)c3)c2C1 [SNX-2112] | 95.2 | 102 | 59.3 | 34.4 | 32.7 | 99.9 | 103 | 44.6 | 35.7 | 35.1 | 108 | 96.3 | 3.7 | 0.4 | 1.1 | 100 | 102 | 27.1 | 2.7 | 1.6 | 95.3 | 101 | 99.8 | 44.9 | 26.9 | 0.0844 | 0.0505 | 0.0313 | 0.0659 | 0.639 | 17.3 | 18.6 | 30.4 | 26.1 | 10.5
C[C@H]1CN(C[C@H](Cc2ccccc2)C(=O)NCC(=O)O)CC[C@@]1(C)c1cccc(O)c1 [alvimopan] | 102 | 91.8 | 93.6 | 107 | 106 | 107 | 91.9 | 104 | 111 | 104 | 96.8 | 103 | 110 | 99.3 | 104 | 100 | 97.3 | 101 | 104 | 102 | 90.4 | 96.2 | 94.8 | 95.8 | 104 | > 10 | > 10 | > 10 | > 10 | > 10 | 0 | 0 | 0 | 0 | 0
CCOC(=O)c1ccc(N)cc1 [benzocaine] | 96.4 | 84.7 | 101 | 97.9 | 97 | 94 | 96 | 105 | 105 | 98.7 | 98.6 | 94.9 | 98.1 | 95 | 96.5 | 99.3 | 95.4 | 99.9 | 99.6 | 95.5 | 103 | 102 | 95.7 | 102 | 110 | > 10 | > 10 | > 10 | > 10 | > 10 | 0 | 0 | 0 | 0 | 0
CN(C)c1ccc(/C=C2\CCCN=C2c2cccnc2)cc1 [DMAB-anabaseine] | 103 | 107 | 103 | 120 | 76.2 | 101 | 109 | 139 | 105 | 88.8 | 109 | 90.2 | 98.2 | 99.7 | 87.4 | 94.2 | 96.4 | 97.4 | 94.4 | 93.6 | 105 | 92.4 | 99.3 | 93.5 | 91.5 | > 10 | > 10 | > 10 | > 10 | > 10 | 0.4 | 0 | 0.1 | 0 | 0
NS(=O)(=O)c1cc(C2(O)NC(=O)c3ccccc32)ccc1Cl (stereo not given) [chlorthalidone] | 107 | 84.5 | 96.8 | 98.6 | 99 | 96.7 | 92 | 107 | 86.6 | 97.4 | 97.5 | 106 | 97.7 | 107 | 99.6 | 98.4 | 97.4 | 97.3 | 96.8 | 102 | 97.4 | 102 | 98.8 | 103 | 97.3 | > 10 | > 10 | > 10 | > 10 | > 10 | 0 | 0 | 0 | 0 | 0
